Results on 19 molecules are retold here after US9169254B2, “Spiroimidazolone derivative” (Chugai Seiyaku Kabushiki Kaisha, priority 2009, dated 2015).

In the test the target is T1, human PTH1 receptor (Homo sapiens, UniProt Q03431).
T1 sequence (Q03431 27-593): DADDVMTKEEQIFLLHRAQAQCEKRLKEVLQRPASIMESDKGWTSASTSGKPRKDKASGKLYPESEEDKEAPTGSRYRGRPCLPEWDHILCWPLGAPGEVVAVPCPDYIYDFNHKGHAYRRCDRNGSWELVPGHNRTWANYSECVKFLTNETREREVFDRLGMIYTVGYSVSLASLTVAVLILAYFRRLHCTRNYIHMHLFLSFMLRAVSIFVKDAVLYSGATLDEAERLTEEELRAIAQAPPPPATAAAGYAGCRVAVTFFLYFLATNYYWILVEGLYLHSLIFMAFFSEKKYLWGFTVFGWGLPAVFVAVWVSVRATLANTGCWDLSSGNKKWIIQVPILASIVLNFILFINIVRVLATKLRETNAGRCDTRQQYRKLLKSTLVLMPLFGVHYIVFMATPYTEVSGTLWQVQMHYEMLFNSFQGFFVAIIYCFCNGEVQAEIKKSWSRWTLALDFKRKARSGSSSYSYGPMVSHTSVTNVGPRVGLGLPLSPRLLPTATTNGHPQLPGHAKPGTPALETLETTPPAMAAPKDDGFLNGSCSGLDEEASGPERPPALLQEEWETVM
In words: In vitro cAMP signal activity in HKRK-B7 cells (LLC-PK1 cells overexpressing the human PTH1 receptor). Format: cell-based. The settings on record: HKRK-B7 cells; compound at 1×10^−3 M; cAMP produced as percentage of that produced by hPTH(1-34) at 100 nM.

Structures can show the parent of a compound that is named as a salt.

With `CC1(C2=NC3(CCN(S(=O)(=O)c4cccc(Cl)c4)CC3)C(=O)N2)CCCCC1` [Compound 14, 8-(3-chloro-benzenesulfonyl)-2-(1-methyl-cyclohexyl)-1,3,8-triaza-spiro[4.5]dec-1-en-4-one], the “cAMP production activity (%)” value was determined as 38%.

As for `Cc1cc(N(C)C(N)=O)cc(C)c1/C=C/S(=O)(=O)N1CCC2(CC1)N=C(CCCCCCCCCC(=O)O)NC2=O` [Compound 1171, 10-(8-{(E)-2-[2,6-Dimethyl-4-(1-methyl-ureido)-phenyl]-ethenesulfonyl}-4-oxo-1,3,8-triaza-spiro[4.5]dec-1-en-2-yl)-decanoic acid], the “cAMP production activity (%)” value worked out at 28%.

In the case of `O=C(NCc1ccccc1)c1ccccc1S(=O)(=O)N1CCC2(CC1)N=C(C1CCCCC1)NC2=O` [Compound 347, N-Benzyl-2-(2-cyclohexyl-4-oxo-1,3,8-triaza-spiro[4.5]dec-1-ene-8-sulfonyl)-benzamide], the “cAMP production activity (%)” value came to 23%.

Consider `Cc1cc(N2C(=O)CNC2=O)ccc1CCS(=O)(=O)N1CCC2(CC1)N=C([C@H]1CC[C@H](CC(F)(F)F)CC1)NC2=O` [Compound 948, 3-[3-Methyl-4-(2-{4-oxo-2-[4-(2,2,2-trifluoro-ethyl)-cyclohexyl]-1,3,8-triaza-spiro[4.5]dec-1-ene-8-sulfonyl}-ethyl)-phenyl]-imidazolidine-2,4-dione], for which the “cAMP production activity (%)” value is 68%.

Consider `Cc1cc(CN(C)C(N)=O)cc(C)c1CCS(=O)(=O)N1CCC2(CC1)N=C(C1CCC(C)CC1)NC2=O` (stereo not shown) [Compound 1390, 1-(3,5-dimethyl-4-{2-[2-(4-methyl-cyclohexyl)-4-oxo-1,3,8-triaza-spiro[4.5]dec-1-ene-8-sulfonyl]-ethyl}-benzyl)-1-methyl-urea], for which the “cAMP production activity (%)” value is given as 69%.

For `CCCCCCCCCC1=NC2(CCN(S(=O)(=O)CCc3c(C)cc(OCCC(O)CO)cc3C)CC2)C(=O)N1` (stereo not shown) [Compound 798, 8-{2-[4-(3,4-dihydroxy-butoxy)-2,6-dimethyl-phenyl]-ethanesulfonyl}-2-nonyl-1,3,8-triaza-spiro[4.5]dec-1-en-4-one], the “cAMP production activity (%)” value is recorded as 101%.

For the molecule `O=C1NC(c2cccc(C(F)(F)F)c2)=NC12CCN(S(=O)(=O)c1ccc(Cl)s1)CC2` [Compound 66, 8-(5-Chloro-thiophene-2-sulfonyl)-2-(3-trifluoromethyl-phenyl)-1,3,8-triaza-spiro[4.5]dec-1-en-4-one], the “cAMP production activity (%)” value came to 57%.

On to `CNc1cc(C)c(CCS(=O)(=O)N2CCC3(CC2)N=C(C2CCCN2)NC3=O)c(C)c1` (stereo not shown) [Compound 1286, 8-[2-(2,6-Dimethyl-4-methylamino-phenyl)-ethanesulfonyl]-2-pyrrolidin-2-yl-1,3,8-triaza-spiro[4.5]dec-1-en-4-one dihydrochloride], for which the “cAMP production activity (%)” value came out at 35%.

With `CN(CCO)S(=O)(=O)c1ccc(/C=C/S(=O)(=O)N2CCC3(CC2)N=C(C2CCCCC2)NC3=O)c(C(F)(F)F)c1` [Compound 495, 4-[(E)-2-(2-cyclohexyl-4-oxo-1,3,8-triaza-spiro[4.5]dec-1-ene-8-sulfonyl)-vinyl]-N-(2-hydroxy-ethyl)-N-methyl-3-trifluoromethyl-benzenesulfonamide], the “cAMP production activity (%)” value is 21%.

For `Cc1cc(N2C(=O)CC[C@H]2CO)ccc1/C=C/S(=O)(=O)N1CCC2(CC1)N=C(c1ccc(F)c(C(F)(F)F)c1)NC2=O` [Compound 621, 2-(4-fluoro-3-trifluoromethyl-phenyl)-8-{(E)-2-[4-((S)-2-hydroxymethyl-5-oxo-pyrrolidin-1-yl)-2-methyl-phenyl]-ethenesulfonyl}-1,3,8-triaza-spiro[4.5]dec-1-en-4-one], the “cAMP production activity (%)” value is 80%.

Turning to `Cc1cc(C(=O)N(C)N(C)C)cc(C)c1/C=C/S(=O)(=O)N1CCC2(CC1)N=C(C1CCC(CCC(F)(F)F)CC1)NC2=O` (stereo not shown) [Compound 629, 3,5-Dimethyl-4-((E)-2-{4-oxo-2-[4-(3,3,3-trifluoro-propyl)-cyclohexyl]-1,3,8-triaza-spiro[4.5]dec-1-ene-8-sulfonyl}-vinyl)-benzoic acid trimethylhydrazide], the “cAMP production activity (%)” value is 87%.

In the case of `O=C1NC(C2CCCCC2)=NC12CCN(S(=O)(=O)c1csc3ccccc13)CC2` [Compound 53, 8-(benzo[b]thiophene-3-sulfonyl)-2-cyclohexyl-1,3,8-triaza-spiro[4.5]dec-1-en-4-one], the “cAMP production activity (%)” value is recorded as 33%.

Consider `CC(=O)N(C)c1cc(C)c(/C=C/S(=O)(=O)N2CCC3(CC2)N=C(C2CCC(CCC(F)(F)F)CC2)NC3=O)c(C)c1` (stereo not shown) [Compound 546, N-[3,5-dimethyl-4-((E)-2-{4-oxo-2-[4-(3,3,3-trifluoro-propyl)-cyclohexyl]-1,3,8-triaza-spiro[4.5]dec-1-ene-8-sulfonyl}-vinyl)-phenyl]-N-methyl-acetamide], for which the “cAMP production activity (%)” value came out at 75%.

For the molecule `COc1cccc(/C=C/S(=O)(=O)N2CCC3(CC2)N=C([C@H]2CC[C@H](C)CC2)NC3=O)c1C` [Compound 585, 8-[(E)-2-(3-methoxy-2-methyl-phenyl)-ethenesulfonyl]-2-(4-methyl-cyclohexyl)-1,3,8-triaza-spiro[4.5]dec-1-en-4-one], the “cAMP production activity (%)” value was 39%.

In the case of `Cc1cc2cc(C)c1CCS(=O)(=O)N1CCC3(CC1)N=C(CCCC/C=C/CCCCC(=O)N2C)NC3=O` [Compound 1447], the “cAMP production activity (%)” value was 15%.

Take `[2H]C([2H])([2H])C([2H])([2H])Oc1ccc(C2=NC3(CCN(S(=O)(=O)/C=C/c4c(C)cc(C(=O)N5CCC(C)(O)CC5)cc4C)CC3)C(=O)N2)cc1C(F)(F)F` [Compound 1221, 2-(4-[1,1,2,2,2-^2H5]ethoxy-3-trifluoromethyl-phenyl)-8-{(E)-2-[4-(4-hydroxy-4-methyl-piperidine-1-carbonyl)-2,6-dimethyl-phenyl]-ethenesulfonyl}-1,3,8-triaza-spiro[4.5]dec-1-en-4-one]: the “cAMP production activity (%)” value is 75%.

For the molecule `Cc1cc(N2C(=O)CNC2=O)ccc1/C=C/S(=O)(=O)N1CCC2(CC1)N=C(C1CCC(C(C)C)CC1)NC2=O` (stereo not shown) [Compound 563, 3-(4-{(E)-2-[2-(4-Isopropyl-cyclohexyl)-4-oxo-1,3,8-triaza-spiro[4.5]dec-1-ene-8-sulfonyl]-vinyl}-3-methyl-phenyl)-imidazolidine-2,4-dione], the “cAMP production activity (%)” value is 69%.

As for `Cc1cc(C(=O)N2CCC(O)(CF)CC2)cc(C)c1/C=C/S(=O)(=O)N1CCC2(CC1)N=C(c1ccc(Cl)c(OC(C)(C)C(F)(F)F)c1)NC2=O` [Compound 1271, 2-[4-chloro-3-(2,2,2-trifluoro-1,1-dimethyl-ethoxy)-phenyl]-8-{(E)-2-[4-(4-fluoromethyl-4-hydroxy-piperidine-1-carbonyl)-2,6-dimethyl-phenyl]-ethenesulfonyl}-1,3,8-triaza-spiro[4.5]dec-1-en-4-one], the “cAMP production activity (%)” value stood at 92%.

Regarding `Cc1cc(N(CCOCCO)C(N)=O)cc(C)c1CCS(=O)(=O)N1CCC2(CC1)N=C(C1CCC(CCC(F)(F)F)CC1)NC2=O` (stereo not shown) [Compound 826, 1-[3,5-dimethyl-4-(2-{4-oxo-2-[4-(3,3,3-trifluoro-propyl)-cyclohexyl]-1,3,8-triaza-spiro[4.5]dec-1-ene-8-sulfonyl}-ethyl)-phenyl]-1-[2-(2-hydroxy-ethoxy)-ethyl]-urea], the “cAMP production activity (%)” value was found to be 90%.
